In ChEMBL document CHEMBL1147493, “Small molecule biaryl FSH receptor agonists. Part 2: Lead optimization via parallel synthesis” (Bioorg Med Chem Lett, 2004):
“And” between values parts separate entries of the source, which are not always exact repeats. Identical values can stand only once.

Key:
Format in all cases: functional
[1] = target: T1, Follicle-stimulating hormone receptor (Homo sapiens, UniProt P23945); assay: Agonistic activity against human follicle stimulating hormone receptor in CHO-hFSHR-luciferase assay.
T1 sequence (P23945 whole entry): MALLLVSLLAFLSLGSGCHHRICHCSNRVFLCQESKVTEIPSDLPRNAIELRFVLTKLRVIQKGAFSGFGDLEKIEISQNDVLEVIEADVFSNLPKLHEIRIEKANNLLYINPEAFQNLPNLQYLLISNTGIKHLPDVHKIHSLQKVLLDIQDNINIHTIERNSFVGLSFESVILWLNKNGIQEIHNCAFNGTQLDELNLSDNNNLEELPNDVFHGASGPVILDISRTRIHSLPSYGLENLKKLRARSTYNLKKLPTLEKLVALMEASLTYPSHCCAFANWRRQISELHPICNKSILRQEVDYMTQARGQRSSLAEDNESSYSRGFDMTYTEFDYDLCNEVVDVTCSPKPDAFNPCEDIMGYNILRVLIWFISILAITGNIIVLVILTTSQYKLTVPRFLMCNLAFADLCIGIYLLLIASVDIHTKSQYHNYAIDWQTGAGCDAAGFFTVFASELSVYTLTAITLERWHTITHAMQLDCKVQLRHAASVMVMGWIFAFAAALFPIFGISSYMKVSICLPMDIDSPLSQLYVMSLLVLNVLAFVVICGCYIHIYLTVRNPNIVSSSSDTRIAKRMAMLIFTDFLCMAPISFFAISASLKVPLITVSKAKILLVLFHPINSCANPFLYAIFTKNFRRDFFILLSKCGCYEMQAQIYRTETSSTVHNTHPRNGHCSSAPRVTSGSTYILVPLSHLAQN

[2] = target: T1, Follicle-stimulating hormone receptor; assay: Agonistic activity in CHO-hFSHR cell-based cAMP accumulation assay
[3] = target: T2, Follicle-stimulating hormone receptor (Homo sapiens) (UniProt P23945); assay: Agonistic efficacy in CHO-hFSHR cell-based cAMP accumulation assay relative to FSH(=100%)
T2 sequence (whole entry): T1 sequence (P23945 whole entry)

[4] = target: T1, Follicle-stimulating hormone receptor; assay: Agonistic activity in CHO-hFollicle stimulating hormone receptor cell-based cAMP accumulation assay

Row | SMILES | EC50 [1] [nM] | EC50 [2] | Efficacy [3] [%] | EC50 [4] [nM]
1 | CCCCCCN1CC(=O)N(C)[C@H](Cc2ccc(-c3cc(OC)c(OC)c(OC)c3)cc2)C1=O | > 50000 | – | – | –
2 | CCCCCCCCN1CC(=O)N(C)[C@@H](Cc2ccc(-c3cc(C)c(OC)c(C)c3)cc2)C1=O | 1200 | – | – | –
3 | CCCCCCN1C(=O)[C@H](Cc2ccc(-c3cccc(CN(CCCC)C(C)=O)c3)cc2)N(C)C(=O)[C@@H]1C | 150 | – | – | –
4 | CCCCCCNC(=O)CN1CC(=O)N[C@@H](Cc2ccc(-c3cc(OC)c(OC)c(OC)c3)cc2)C1=O | > 20000 | – | – | –
5 | CCCCCNC(=O)CN1CC(=O)N(C)[C@@H](Cc2ccc(-c3cccc(CN(CCCC)C(=O)NC)c3)cc2)C1=O | 1.7 | – | – | –
6 | CCCCCCNC(=O)CN1CC(=O)N(CC)[C@@H](Cc2ccc(-c3cc(OC)c(OC)c(OC)c3)cc2)C1=O | > 20000 | – | – | –
7 | CCCCCCCCN1C(=O)[C@H](Cc2ccc(-c3cccc(CN(CCCC)C(=O)NC)c3)cc2)N(C)C(=O)[C@@H]1C | 1.2 | 7.9 nM | 72 | –
8 | CCCCCCCCN1CC(=O)N(C)[C@@H](Cc2ccc(-c3cc(OC)cc(OC)c3)cc2)C1=O | 5000 | – | – | –
9 | CCCCCCCCN1CC(=O)N(C)[C@@H](Cc2ccc(-c3cc(OC)c(OC)c(OC)c3)cc2)C1=O | 400 | – | – | –
10 | CCCCCCNC(=O)CN1CC(=O)N(CCC)[C@@H](Cc2ccc(-c3cc(OC)c(OC)c(OC)c3)cc2)C1=O | > 20000 | – | – | –
11 | CCCCCCCCN1C(=O)[C@H](Cc2ccc(-c3cccc(CN(COC)C(=O)OC)c3)cc2)N(C)C(=O)[C@@H]1C | 1.8 | – | – | –
12 | CCCCCCCCN1C(=O)[C@H](Cc2ccc(-c3cc(OC)c(OC)c(OC)c3)cc2)N(C)C(=O)[C@@H]1C | 13 | 32 nM | 47 | –
13 | CCCCCCN1C(=O)[C@H](Cc2ccc(-c3cccc(CN(CCCC)C(=O)NC)c3)cc2)N(C)C(=O)[C@@H]1C | 7.2 | 9.5 nM | 85 | –

Further lines, results first:

Row | EC50 [1] [nM] | EC50 [2] | Efficacy [3] [%] | EC50 [4] [nM] | SMILES
14 | 120 | – | – | – | CCCCCCCCN1C(=O)[C@H](Cc2ccc(-c3cc(OC)c(OC)c(OC)c3)cc2)N(C)C(=O)[C@H]1C
15 | 2300 | – | – | – | CCCCCCCN1CC(=O)N(C)[C@@H](Cc2ccc(-c3cc(OC)c(OC)c(OC)c3)cc2)C1=O
16 | 2.7 | 31 nM | 49 | – | CCCCCCCCN1C(=O)[C@H](Cc2ccc(-c3cccc(CN(CCCC)C(=O)OC)c3)cc2)N(C)C(=O)[C@@H]1C
17 | 900 | – | – | – | CCCCCCCCCN1CC(=O)N(C)[C@@H](Cc2ccc(-c3cc(OC)c(OC)c(OC)c3)cc2)C1=O
18 | 100 | – | – | – | CCCCCCN1C(=O)[C@H](Cc2ccc(-c3cc(OC)c(OC)c(OC)c3)cc2)N(C)C(=O)[C@@H]1C
19 | 3.6 | – | – | – | CCCCCCCCN1C(=O)[C@H](Cc2ccc(-c3cccc(CN(COC)C(=O)NC)c3)cc2)N(C)C(=O)[C@@H]1C
20 | 3300 | – | – | – | CCCCCCCCN1CC(=O)N(C)[C@@H](Cc2ccc(-c3ccc(OC)c(OC)c3)cc2)C1=O
21 | 9000 | – | – | – | CCCCCN1CC(=O)N(C)[C@@H](Cc2ccc(-c3cc(OC)c(OC)c(OC)c3)cc2)C1=O
22 | 3000 | – | – | – | CCCCCCN1CC(=O)N(C)[C@@H](Cc2ccc(-c3cc(OC)c(OC)c(OC)c3)cc2)C1=O
23 | 25 | – | 54 | 32 | CCCCCCCN1C(=O)[C@H](Cc2ccc(-c3cc(OC)c(OC)c(OC)c3)cc2)N(C)C(=O)[C@@H]1C
24 | 8.9 | 48 nM and 59 nM | – | – | CCCCCCN1C(=O)[C@H](Cc2ccc(-c3cccc(CN(CCCC)C(=O)OC)c3)cc2)N(C)C(=O)[C@@H]1C
25 | 14 | 35 nM | 57 | – | CCCCCCCCN1C(=O)[C@H](Cc2ccc(-c3cccc(CN(CCCC)C(C)=O)c3)cc2)N(C)C(=O)[C@@H]1C
26 | 68 | – | – | – | CCCCCCCCN1C(=O)[C@@H](Cc2ccc(-c3cc(OC)c(OC)c(OC)c3)cc2)N(C)C(=O)[C@@H]1C
27 | 9.7 | – | – | – | CCCCCCCCN1C(=O)[C@H](Cc2ccc(-c3cccc(CN(COC)C(C)=O)c3)cc2)N(C)C(=O)[C@@H]1C
28 | 3 | – | – | – | CCCCCCNC(=O)CN1CC(=O)N(C)[C@@H](Cc2ccc(-c3cc(OC)c(OC)c(OC)c3)cc2)C1=O
29 | 1600 | – | – | – | CCCCCCCCN1C(=O)[C@@H](Cc2ccc(-c3cc(OC)c(OC)c(OC)c3)cc2)N(C)C(=O)[C@H]1C
